Assay results as given in ChEMBL document CHEMBL1201862, “PubChem BioAssay data set” (2004).
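In this assay, cells in 96-well plates receive the compound at five concentrations for 48 hours. Endpoints are linearly interpolated between the surrounding concentrations. GI50 = concentration required for 50% inhibition of growth.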 Activity calls are given as the source filed them. Cut-off read from the data, not from the text of the source: active = GI50 up to about 1.1 µM and inactive = higher.

Legend:
Assay in all cases: DTP human tumour cell line panel, 48 h
786-0 = system: 786-0
A549 = system: A549
ACHN = system: ACHN
DU-145 = system: DU-145
EKVX = system: EKVX
HCT-116 = system: HCT-116
HCT-15 = system: HCT-15
IGROV-1 = system: IGROV-1
MCF7 = system: MCF7
MDA-MB-435 = system: MDA-MB-435
MDA-N = system: MDA-N
NCI-H226 = system: NCI-H226
NCI-H23 = system: NCI-H23
NCI-H522 = system: NCI-H522
OVCAR-8 = system: OVCAR-8
SK-MEL-28 = system: SK-MEL-28
SN12C = system: SN12C
SNB-75 = system: SNB-75
U-251 = system: U-251
UACC-62 = system: UACC-62

SMILES | GI50 (786-0) | GI50 (A549) | GI50 (ACHN) | GI50 (DU-145) | GI50 (EKVX) | GI50 (HCT-116) | GI50 (HCT-15) | GI50 (IGROV-1) | GI50 (MCF7) | GI50 (MDA-MB-435) | GI50 (MDA-N) | GI50 (NCI-H226) | GI50 (NCI-H23) | GI50 (NCI-H522) | GI50 (OVCAR-8) | GI50 (SK-MEL-28) | GI50 (SN12C) | GI50 (SNB-75) | GI50 (U-251) | GI50 (UACC-62)
O=C(O)C1C2C=CC(O2)C1C(=O)NCc1cccnc1 (stereo not given) | > 100 µM (inactive) | > 100 µM (inactive) | > 100 µM (inactive) | > 100 µM (inactive) | > 100 µM (inactive) | > 100 µM (inactive) | > 100 µM | > 100 µM (inactive) | > 100 µM (inactive) | > 100 µM (inactive) | > 100 µM (inactive) | > 100 µM (inactive) | > 100 µM (inactive) | > 100 µM (inactive) | > 100 µM (inactive) | > 100 µM (inactive) | > 100 µM (inactive) | > 100 µM (inactive) | > 100 µM (inactive) | > 100 µM (inactive)
O=C(O)c1cc(=O)c2c(OCC(O)COc3cccc4oc(C(=O)O)cc(=O)c34)cccc2o1 | > 100 µM (inactive) | > 84.3 µM (inactive) | > 100 µM (inactive) | > 100 µM (inactive) | > 96.6 µM (inactive) | > 74.8 µM (inactive) | > 100 µM | > 60.5 µM (inactive) | > 85.1 µM (inactive) | > 67.5 µM (inactive) | > 71.8 µM (inactive) | > 100 µM (inactive) | > 84.3 µM (inactive) | > 56.8 µM (inactive) | 99.5 µM (inactive) | > 100 µM (inactive) | > 100 µM (inactive) | > 61 µM (inactive) | > 75.2 µM (inactive) | > 68.1 µM (inactive)
